# Columns and labels:
# [1] = biological target: MEK-1 (Homo sapiens, UniProt Q02750); details: Alessi et al. 1995; cited from earlier work
# [2] = test system: JNK; test: JNK solid state kinase assay (GST-Jun) in L929 cells; format: cell-based, murine; details: not shown
# Method: (§1) In panel A cells were treated for 10 minutes with the indicated concentration of TNFα. JNK activation was measured using a solid phase kinase assay resulting in phosphorylation of GST-Jun. In […] the time course of MAPK activation is shown. MAPK was isolated from cell lysates on DEAE sephacel columns and MAPK activation was measured by phosphorylation of the EGFR peptide substrate. Panel C depicts the concentration curve of MAPK activation by TNFα. Cells were treated with the indicated concentration of TNFα and MAPK was assayed.
# (§2) Cell lines and culture. L929 cells (ATCC CCL1 were maintained in Dulbecco's modified Eagle's medium with 5% newborn calf serum and 5% bovine calf serum (BCS) supplemented with 100 ug/ml streptomycin and 100 U/ml penicillin. The cells were grown in 10 cm dishes at 37° C. in 7.5% CO2. Cells were made quiescent where indicated by incubation in Dulbecco's modified Eagle's medium and 0.1% bovine serum albumin for 24 h. Recombinant murine TNFα and recombinant human bFGF (147aa) were from R&D Systems, Minneapolis, Minn. Cells were pretreated where indicated with the MEK-1 inhibitor PD#098059 (Parke-Davis Pharmaceutical Corp. Ann Arbor, Mich.) for 1 h at 37° C. Cells were stimulated by incubation with the indicated cytokine or growth factor for various times at 37° C. Stimulation was stopped by rinsing the plates twice with ice cold phosphate buffered saline (PBS) and lysing the cells in the appropriate lysis buffer. Cells were scraped from the plates and nuclei were pelleted for 10 min at 14,000 RPM in a microcentrifuge. JNK assay. JNK activity was measured using a solid state kinase assay in which glutathione S-transferase-c-Jun (1-79) (GST-JUN) cound to glutathione-Sepharose 4B beads was used to affinity purify JNK and then JNK activity was measured in an in vitro kinase assay using the sepharose bound GST-Jun as a substrate (Hibi, M., et al. (1993) Genes & Development 7:2135-2148). Stimulated or unstimulated cells were lysed in 0.5% Nonidet P-40, 20 mM HEPES pH 7.2, 100 mM NaCl, 2 mM dithiothreitol, 1 mM EDTA, 1.0 mM phenylmethylsulfonylfluoride, 1 μg/ml aprotinin and the nuclei pelleted. Lysates were normalized for protein content. JNK was affinity purified from 50-100 μg of cell lysate by the addition of 10 ul of GST-Jun sepharose slurry (2 μg GST-Jun). Binding to GST-Jun efficiently isolates the two major forms of JNK (p45 and p55) and under the conditions used JNK isolation was linear for 10-250 μg of cell lysate. The lysates were rotated at 4° C. for 1-3 h. Beads were washed twice in lysis buffer and then twice in PAN (10 mM PIPES, pH 7.0, 100 mM NaCl, 21 μg/ml aprotinin). Kinase reactions were carried out at 30° C. for 15 min in 20 mM Hepes pH 7.2, 20 mM β-glycerophosphate, 10 mM p-nitrophenyl phosphate, 10 mM MgCl2, 1 mM dithiothreitol, 50 μm sodium vanadate, 10 μCi γ^32P-ATP 4300 Ci/mmole. The kinase reaction was linear from 0-30 min. MAPK Assay MAPK activity was measured exactly as described previously (Gardner, A. M., et al. (1994) Meth. Enzymol. 238:258-270) with the exception that MonoQ FPLC fractionation was replaced by step elution from a DEAE-Sephacel column using 0.5 M NaCl in loading buffer. The eluate was assayed in triplicate using the epidermal growth factor receptor 662-681 peptide (EGFR662-681) as a selective substrate for MAPK activity (Heasley, L. E., et al. (1994) American Journal of Physiology (Renal Fluid Electrolyte Physiol. 36) 267:F366-F373). […] Cells were lysed by scraping in ice cold RIPA buffer (50 mM Tris-HCl, pH 7.2, 150 mM NaCl, 0.1% SDS, 0.5% sodium deoxycholate, 1.0% Triton X-100, 10 mM sodium pyrophosphate, 25 mM β-glycerophosphate, 2 mM sodium vanadate, 2.1 μg/ml aprotinin) and the nuclei were pelletted. […]
# [3] = test system: L929 cells; test: Neutral red cell viability assay of L929 cells treated with TNFα and/or bFGF; format: cell-based, murine; details: L929 cells
# Method: In panel A cells were treated with the indicated concentrations of TNFα for 15 hours and were assayed for uptake of neutral red. In panel B cells were untreated (solid bars), treated with 0.5 ng/ml bFGF (dotted bars) or 5.0 ng/ml bFGF (hatched bars) and the indicated concentrations of TNFα for 18 hours. Cell viability was assessed by neutral red assay.
# In panel A serum starved L929 cells were untreated or treated for 1 hour at 37° C. with the MEK-1 inhibitor (PD) and then unstimulated or stimulated with bFGF. MAPK activity was measured. In panel B L929 cells were untreated or treated for 1 hour at 37° C. with PD and then were untreated or treated with TNFα alone or in combination with bFGF for 18 hours. Cell viability was assessed by neutral red assay.
# Cell lines and culture. L929 cells (ATCC CCL1 were maintained in Dulbecco's modified Eagle's medium with 5% newborn calf serum and 5% bovine calf serum (BCS) supplemented with 100 ug/ml streptomycin and 100 U/ml penicillin. The cells were grown in 10 cm dishes at 37° C. in 7.5% CO2. Cells were made quiescent where indicated by incubation in Dulbecco's modified Eagle's medium and 0.1% bovine serum albumin for 24 h. Recombinant murine TNFα and recombinant human bFGF (147aa) were from R&D Systems, Minneapolis, Minn. Cells were pretreated where indicated with the MEK-1 inhibitor PD#098059 (Parke-Davis Pharmaceutical Corp. Ann Arbor, Mich.) for 1 h at 37° C. Cells were stimulated by incubation with the indicated cytokine or growth factor for various times at 37° C. Stimulation was stopped by rinsing the plates twice with ice cold phosphate buffered saline (PBS) and lysing the cells in the appropriate lysis buffer. Cells were scraped from the plates and nuclei were pelleted for 10 min at 14,000 RPM in a microcentrifuge. JNK assay. JNK activity was measured using a solid state kinase assay in which glutathione S-transferase-c-Jun (1-79) (GST-JUN) cound to glutathione-Sepharose 4B beads was used to affinity purify JNK and then JNK activity was measured in an in vitro kinase assay using the sepharose bound GST-Jun as a substrate (Hibi, M., et al. (1993) Genes & Development 7:2135-2148). Stimulated or unstimulated cells were lysed in 0.5% Nonidet P-40, 20 mM HEPES pH 7.2, 100 mM NaCl, 2 mM dithiothreitol, 1 mM EDTA, 1.0 mM phenylmethylsulfonylfluoride, 1 μg/ml aprotinin and the nuclei pelleted. Lysates were normalized for protein content. JNK was affinity purified from 50-100 μg of cell lysate by the addition of 10 ul of GST-Jun sepharose slurry (2 μg GST-Jun). Binding to GST-Jun efficiently isolates the two major forms of JNK (p45 and p55) and under the conditions used JNK isolation was linear for 10-250 μg of cell lysate. The lysates were rotated at 4° C. for 1-3 h. Beads were washed twice in lysis buffer and then twice in PAN (10 mM PIPES, pH 7.0, 100 mM NaCl, 21 μg/ml aprotinin). Kinase reactions were carried out at 30° C. for 15 min in 20 mM Hepes pH 7.2, 20 mM β-glycerophosphate, 10 mM p-nitrophenyl phosphate, 10 mM MgCl2, 1 mM dithiothreitol, 50 μm sodium vanadate, 10 μCi γ^32P-ATP 4300 Ci/mmole. The kinase reaction was linear from 0-30 min. MAPK Assay MAPK activity was measured exactly as described previously (Gardner, A. M., et al. (1994) Meth. Enzymol. 238:258-270) with the exception that MonoQ FPLC fractionation was replaced by step elution from a DEAE-Sephacel column using 0.5 M NaCl in loading buffer. The eluate was assayed in triplicate using the epidermal growth factor receptor 662-681 peptide (EGFR662-681) as a selective substrate for MAPK activity (Heasley, L. E., et al. (1994) American Journal of Physiology (Renal Fluid Electrolyte Physiol. 36) 267:F366-F373). […]
# [4] = test system: p42/p44 MAPK; test: MAPK assay (DEAE-Sephacel, EGFR662-681 peptide) in L929 cells; format: cell-based, murine; details: L929 cells
# Method: as §1
# FIG. 26 depicts the activation of MAPK by bFGF in L929 cells. Serum starved L929 cells were stimulated for 10 min with the indicated concentration of bFGF.
# as §2
# Sequence of MEK-1 (Q02750 whole entry, species assumed): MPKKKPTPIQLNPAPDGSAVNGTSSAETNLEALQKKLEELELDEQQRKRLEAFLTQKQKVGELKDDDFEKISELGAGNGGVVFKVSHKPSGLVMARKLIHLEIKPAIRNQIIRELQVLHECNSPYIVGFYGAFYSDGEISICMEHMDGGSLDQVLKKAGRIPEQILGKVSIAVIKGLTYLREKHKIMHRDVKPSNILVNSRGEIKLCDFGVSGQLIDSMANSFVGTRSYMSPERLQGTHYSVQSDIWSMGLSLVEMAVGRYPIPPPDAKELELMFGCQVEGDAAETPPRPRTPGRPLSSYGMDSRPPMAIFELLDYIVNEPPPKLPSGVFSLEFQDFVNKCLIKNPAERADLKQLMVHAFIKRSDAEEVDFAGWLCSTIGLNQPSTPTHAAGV
structure (smiles),measurement,setting,value
"COc1cccc(-c2cc(=O)c3ccccc3o2)c1N [PD #098059, reference compound]",inhibition of MEK-1,[1],"inhibits the dual specificity protein kinase, MEK-1"
same,inhibition of JNK kinase / activation of JNK,[2],did not inhibit JNK kinase or the activation of JNK
same,effect on TNFα-mediated cell death,[3],had no effect on TNFα-mediated apoptosis
same,effect on the protective action of bFGF against TNFα,[3],inhibited the protective action of bFGF
same,effect on bFGF stimulation of MAPK activity,[4],inhibited bFGF stimulation of MAPK activity

# Source: patent US20080201790A1, “Method and product for regulating cell responsiveness to external signals” (priority 1993, published 2008)
